# Where two headings read alike, the source gives them in different places.
# Legend:
# CDK1 = target: T1, CDK1 (Homo sapiens, UniProt P06493); experiment: CDK1 in vitro kinase activity, single concentration 1 μM; type: biochemical; conditions: single concentration 1 μM
# T1 construct: purchased BPS Bioscience 79597
# Method: (§1) Kinase activity was assessed using the kinase assay kits from BPS Bioscience for CDK1, CDK9 and CDK12 with Kinase Glo MAX in duplicates. Compounds were tested at a single concentration of 1 μM for CDK1 and CDK9 activity, and in a dilution ranging from 0.64 nM to 50 μM for CDK12 activity. Chemiluminescence was read using the Neo Synergy BioTek plate reader.
# CDK9/CyclinT = target: T2, CDK9/CyclinT (Homo sapiens, UniProt P50750); experiment: CDK9/CyclinT in vitro kinase activity, single concentration 1 μM; type: biochemical; conditions: single concentration 1 μM
# T2 construct: purchased BPS Bioscience 79628
# T2 sequence (P50750 whole entry): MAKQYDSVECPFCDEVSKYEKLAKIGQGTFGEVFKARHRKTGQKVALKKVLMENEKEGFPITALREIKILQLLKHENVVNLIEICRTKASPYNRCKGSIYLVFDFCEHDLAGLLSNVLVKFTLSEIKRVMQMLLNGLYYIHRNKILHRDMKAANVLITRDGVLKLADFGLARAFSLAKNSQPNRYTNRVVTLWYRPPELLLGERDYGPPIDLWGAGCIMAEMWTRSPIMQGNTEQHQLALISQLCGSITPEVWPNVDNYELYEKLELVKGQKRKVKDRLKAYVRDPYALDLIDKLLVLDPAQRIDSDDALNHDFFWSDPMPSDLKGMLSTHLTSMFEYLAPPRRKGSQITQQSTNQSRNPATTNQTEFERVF
# T2 sequence (O60563 whole entry partner): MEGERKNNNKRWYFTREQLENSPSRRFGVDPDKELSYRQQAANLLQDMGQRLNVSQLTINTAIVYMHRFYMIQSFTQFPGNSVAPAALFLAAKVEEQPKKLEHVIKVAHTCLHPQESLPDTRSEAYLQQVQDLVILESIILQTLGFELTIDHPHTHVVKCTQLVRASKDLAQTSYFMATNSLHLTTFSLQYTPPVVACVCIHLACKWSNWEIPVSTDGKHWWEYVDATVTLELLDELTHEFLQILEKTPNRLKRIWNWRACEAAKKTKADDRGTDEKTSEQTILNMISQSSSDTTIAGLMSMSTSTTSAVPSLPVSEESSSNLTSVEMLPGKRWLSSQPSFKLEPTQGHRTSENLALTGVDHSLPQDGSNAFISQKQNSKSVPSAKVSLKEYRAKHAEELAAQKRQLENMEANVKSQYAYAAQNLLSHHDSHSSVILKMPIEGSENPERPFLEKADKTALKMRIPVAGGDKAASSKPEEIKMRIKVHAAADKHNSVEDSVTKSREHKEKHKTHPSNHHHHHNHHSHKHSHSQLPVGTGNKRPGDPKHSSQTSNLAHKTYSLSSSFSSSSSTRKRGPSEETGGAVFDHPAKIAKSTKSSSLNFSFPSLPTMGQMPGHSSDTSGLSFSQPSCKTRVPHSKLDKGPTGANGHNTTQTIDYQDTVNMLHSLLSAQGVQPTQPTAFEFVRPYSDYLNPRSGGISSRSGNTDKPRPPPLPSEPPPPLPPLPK
# Method: as §1
# OCI-AML5 cells = experiment: Dose-response proliferative assay in OCI-AML5 (4 days, CellTiterGlo); type: cell-based, H. sapiens; conditions: read-out: IC50 in AML5
# Method: Cell lines were purchased from the ATCC or donated from collaborators. OCI-AML5 cell line was cultured in αMEM, 10% heat-inactivated FBS supplemented with 10 ng/mL GM-CSF, OCI-AML1, U2OS and HEK293T cell lines in DMEM, 10% heat-inactivated FBS. Cells were maintained at 37 °C in 5% CO2 atmosphere.
# Dose-response assays in primary AML specimens were performed as in chemical screen (see above) with the exception that compounds were tested in serial dilution (8 dilutions, 1:4, 10 μM down to 0.5 nM). Dose-response assays in OCI-AML5 cell line were conducted similarly with the following modifications: 300 cells per well were seeded in 50 μL of cell line media and cell viability was evaluated after 4 days in culture.
# [1] = system: OCI-AML5 cells expressing shRNAs targeting CDK1, 2, 4, 7, 9, cyclin K; experiment: Dose response in OCI-AML5 expressing shRNAs targeting CDK1, 2, 4, 7, 9, cyclin K or control; type: cell-based, H. sapiens; conditions: for Class: class from shRNA IC50 profile and cyclin K-eGFP degradation
# cyclin KeGFP = experiment: Cyclin KeGFP reporter system (eGFP/mCherry MFI by flow cytometry);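 note: 10 μM compound for 3 h relative to DMSO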; type: cell-based, H. sapiens; conditions: cyclin K-eGFP reporter
# Method: We used the cyclin KeGFP reporter system previously described (Słabicki et al, [2020]). Lentiviral vector (Addgene plasmid #169930) was used to infect OCI-AML5 at a MOI of 5 and were selected with puromycin. Cells were seeded in methylcellulose and let grown as colonies for 10 days. Colonies were isolated, expanded and selected based on cyclin KeGFP fluorescence in presence and absence of cyclin K degrader molecules. Selected G7 clone was used for all reported experiments. Fluorescent signal of cyclin KeGFP and mCherry were quantified by flow cytometry (BD LSRII) in each condition and the geometric mean fluorescence intensity (MFI) were calculated using FlowJo (BD Biosciences). The ratio of eGFP to mCherry was normalized to DMSO-treated cells.
# [2] = system: OCI-AML5 cells expressing shRNA targeting CUL4A or CUL4B; experiment: Dose response in OCI-AML5 expressing shRNAs targeting CUL4A, CUL4B or control; type: cell-based, H. sapiens; conditions: ratio of IC50 in shCUL4A vs shCTRL OCI-AML5 cells
# [3] = Homo sapiens, OCI-AML-5, OCI-AML5 cells
# [4] = Homo sapiens, OCI-AML-5, OCI-AML5 expressing shRNA CCNK (cyclin K), read-out: IC50 shRNA CCNK
# [5] = Homo sapiens, OCI-AML-5, OCI-AML5 expressing shRNA CDK1, read-out: IC50 shRNA CDK1
# [6] = Homo sapiens, OCI-AML-5, OCI-AML5 expressing shRNA CDK2, read-out: IC50 shRNA CDK2
# [7] = Homo sapiens, OCI-AML-5, OCI-AML5 expressing shRNA CDK4, read-out: IC50 shRNA CDK4
# [8] = Homo sapiens, OCI-AML-5, OCI-AML5 expressing shRNA CDK7, read-out: IC50 shRNA CDK7
# [9] = Homo sapiens, OCI-AML-5, OCI-AML5 expressing shRNA CDK9, read-out: IC50 shRNA CDK9
# T1 sequence (P06493 whole entry): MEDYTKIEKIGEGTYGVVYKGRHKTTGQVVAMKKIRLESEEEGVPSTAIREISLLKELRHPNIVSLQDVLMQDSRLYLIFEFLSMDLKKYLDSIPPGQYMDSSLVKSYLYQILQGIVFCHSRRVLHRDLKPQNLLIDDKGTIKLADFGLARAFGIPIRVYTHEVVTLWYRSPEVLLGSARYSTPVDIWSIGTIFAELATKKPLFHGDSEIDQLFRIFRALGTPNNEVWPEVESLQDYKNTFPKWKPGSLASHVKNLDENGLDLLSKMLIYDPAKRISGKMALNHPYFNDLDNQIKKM
# T1 sequence (P14635 whole entry partner): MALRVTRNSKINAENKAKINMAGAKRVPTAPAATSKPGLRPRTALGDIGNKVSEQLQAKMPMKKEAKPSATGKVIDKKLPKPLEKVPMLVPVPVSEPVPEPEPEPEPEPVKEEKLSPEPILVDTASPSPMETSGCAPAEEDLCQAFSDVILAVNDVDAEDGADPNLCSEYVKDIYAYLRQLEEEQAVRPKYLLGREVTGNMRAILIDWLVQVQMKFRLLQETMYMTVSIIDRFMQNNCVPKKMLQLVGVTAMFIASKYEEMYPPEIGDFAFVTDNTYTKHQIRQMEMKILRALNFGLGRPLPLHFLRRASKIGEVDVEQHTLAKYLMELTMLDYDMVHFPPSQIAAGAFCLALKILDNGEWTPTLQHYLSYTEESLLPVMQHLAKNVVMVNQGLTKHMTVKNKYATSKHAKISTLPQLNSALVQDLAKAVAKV
SMILES,inhibition at 1 µM (CDK1) [%],inhibition at 1 µM (CDK9/CyclinT) [%],IC50 (OCI-AML5 cells; [3]) [µM],"IC50 [1, 4] [µM]","IC50 [1, 5] [µM]","IC50 [1, 6] [µM]","IC50 [1, 7] [µM]","IC50 [1, 8] [µM]","IC50 [1, 9] [µM]",Class [1],% degradation cyclin K-eGFP (cyclin KeGFP) [%],Ratio shCUL4A/shCTRL [2],% CDK9 inhibition (CDK9/CyclinT) [%],IC50 (OCI-AML5 cells; OCI-AML5 cells) [µM],"IC50 ([1]; OCI-AML5 expressing shRNA CCNK (cyclin K), read-out: IC50 shRNA CCNK) [µM]","IC50 ([1]; OCI-AML5 expressing shRNA CDK1, read-out: IC50 shRNA CDK1) [µM]","IC50 ([1]; OCI-AML5 expressing shRNA CDK2, read-out: IC50 shRNA CDK2) [µM]","IC50 ([1]; OCI-AML5 expressing shRNA CDK4, read-out: IC50 shRNA CDK4) [µM]","IC50 ([1]; OCI-AML5 expressing shRNA CDK7, read-out: IC50 shRNA CDK7) [µM]","IC50 ([1]; OCI-AML5 expressing shRNA CDK9, read-out: IC50 shRNA CDK9) [µM]"
"CC(=O)N[C@@H]1CCC[C@H](C(=O)Nc2cc(-c3cnn4c3CC(C)(C)C4)c(Cl)cn2)C1 [AZD4573, reference compound]",90,100,0.001,0.00109,0.00106,0.00106,0.00105,0.00167,0.000727,2,–,–,–,–,–,–,–,–,–,–
O=C(Nc1ncc(SCc2cccnc2)s1)C1CCNCC1 [UOM-005283],–,71,3.86,3.7,4.18,4.64,3.9,3.02,2.84,–,4,0.91,–,–,–,–,–,–,–,–
Cl.Cl.O=C(CC1CCNC1)Nc1ncc(SCc2cccnc2)s1 (stereo not drawn) [UOM-005300],–,64,7.07,5.41,3.38,5.42,4.45,2.9,3.01,2,5,1.07,–,–,–,–,–,–,–,–
C=C(C(=O)Nc1ncc(SCc2cccnc2)s1)c1ccc2c(c1)[nH]c1ccc(Cl)cc12 [UOM-005447],–,73,7.36,5.41,3.21,3.43,3.94,4.09,4.74,2,63,0.72,–,–,–,–,–,–,–,–
O=C(Cc1ccc(NC(=O)c2ccccn2)cc1)Nc1ncc(SCc2cccnc2)s1 [UOM-005474],–,59,1.24,1,0.753,0.927,1.07,0.949,0.551,2,5,1.03,–,–,–,–,–,–,–,–
O=C(Cc1ccc(NC(=O)C23CC4CC(CC(C4)C2)C3)cc1)Nc1ncc(SCc2cccnc2)s1 [UOM-005477],–,–,–,–,–,–,–,–,–,2,6,0.9,81,1.25,1.03,0.741,1.09,1.2,0.94,0.595
O=C(Cc1ccc(NC(=O)c2ccccc2)cc1)Nc1ncc(SCc2cccnc2)s1 [UOM-005478],–,82,1.35,1.06,0.548,1.08,1.05,1.02,0.355,2,8,0.95,–,–,–,–,–,–,–,–
O=C(Cc1cnccn1)Nc1ncc(SCc2cccnc2)s1 [UOM-005482],34,20,> 10,> 10,3.22,> 10,> 10,> 10,5.92,2,0,–,–,–,–,–,–,–,–,–
O=C(Cc1ccccn1)Nc1ncc(SCc2cccnc2)s1 [UOM-005566],–,15,6.56,6.05,3.92,7.03,8.88,7.58,5.48,2,4,1.07,–,–,–,–,–,–,–,–
O=C(Cc1ccc(N2CCCCC2)cc1)Nc1ncc(SCc2cccnc2)s1 [UOM-005607],–,90,1.85,0.866,0.792,3.01,2.19,2.05,0.909,mixed 1-2,30,0.9,–,–,–,–,–,–,–,–

# Source: article PMC12152147, “DDB1 engagement defines the selectivity of S656 analogs for cyclin K degradation over CDK inhibition” (EMBO Reports, 2025)
